From patent US20240116985A1, “STAPLED PEPTIDES AND METHODS THEREOF” (priority 2020, published 2024)
In brackets after ≈: the same amount, converted by molar mass. Like-named read-outs stand apart in the source and are kept apart here.

Columns and labels:
[1] = molecular target: T1, full-length beta-Catenin (Uniprot ID P35222) (Homo sapiens, UniProt P35222); assay: Fluorescence polarization IC50 (beta-catenin / 5FAM-TCF4 10-53 competition); assay type: binding
T1 construct: 10 nM full-length beta-Catenin (Uniprot ID P35222)
T1 sequence (P35222 1-781): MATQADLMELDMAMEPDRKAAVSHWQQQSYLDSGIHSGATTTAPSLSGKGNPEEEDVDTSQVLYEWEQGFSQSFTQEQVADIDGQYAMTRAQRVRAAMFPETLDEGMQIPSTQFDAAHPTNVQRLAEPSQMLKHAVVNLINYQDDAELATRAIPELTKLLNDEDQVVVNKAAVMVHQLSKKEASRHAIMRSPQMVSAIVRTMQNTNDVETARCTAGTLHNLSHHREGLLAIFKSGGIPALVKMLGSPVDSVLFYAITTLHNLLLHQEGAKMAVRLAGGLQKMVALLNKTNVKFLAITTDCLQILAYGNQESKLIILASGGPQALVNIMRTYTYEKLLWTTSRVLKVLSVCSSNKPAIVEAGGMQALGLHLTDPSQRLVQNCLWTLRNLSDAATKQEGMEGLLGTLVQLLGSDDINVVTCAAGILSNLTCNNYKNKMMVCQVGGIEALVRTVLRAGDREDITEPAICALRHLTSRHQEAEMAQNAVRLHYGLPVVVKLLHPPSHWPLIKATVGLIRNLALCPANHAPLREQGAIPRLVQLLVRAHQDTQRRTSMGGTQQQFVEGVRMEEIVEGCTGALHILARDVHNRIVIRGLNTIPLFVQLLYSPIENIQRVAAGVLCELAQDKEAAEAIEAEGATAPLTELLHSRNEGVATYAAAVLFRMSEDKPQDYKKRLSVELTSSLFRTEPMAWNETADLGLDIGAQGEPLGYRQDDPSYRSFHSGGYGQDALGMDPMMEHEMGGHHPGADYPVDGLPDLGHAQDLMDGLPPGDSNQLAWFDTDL

Solubility in PBS = assay type: physicochemical
How it was run: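 Solubility is derived from HPLC peak areas: the ratio of the PBS supernatant peak to a 50 μM DMSO peptide peak, times 50 uM.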

CHI Log D procedure = assay type: physicochemical; settings: for CHI Log D: pH 7.4
[2] = fluorescence polarization, read-out: beta-Catenin FP IC50

| IC50 [1, 2] | Solubility (Solubility in PBS) | chromatographic logD (CHI Log D procedure; pH 7.4, CHI Log D) | IC50 ([1]; read-out: FP EC50) | CHI Log D (CHI Log D procedure) | Structure (SMILES) |
| --- | --- | --- | --- | --- | --- |
| 58 nM | 50 µM (≈ 95.6 µg/mL) | 2.34 |  |  | CC(=O)N1CCC[C@]12CC=CCCCC1(CCCC=CCCCCCC[C@@](C)(C(=O)N[C@@H](Cc3ccccc3)C(=O)N[C@@H](Cc3csc4ccccc34)C(=O)N[C@@H](CCC(N)=O)C(N)=O)NC(=O)[C@H](CCCNC(N)=O)NC(=O)[C@H](Cc3ccccc3)NC(=O)[C@H](C)NC(=O)[C@H](C)NC(=O)[C@H](CCC(=O)O)NC(=O)[C@H](CC(=O)O)NC1=O)NC(=O)[C@H](CC(C)C)NC(=O)[C@H](CC(=O)O)NC2=O (stereo partly drawn) [I-621, Ac-PL3-Asp-Leu-B5-Asp-Glu-Ala-Ala-Phe-Cit-S8-Phe-BztA-Gln-NH2] |
| 230 nM | 45 µM (≈ 83.5 µg/mL) |  | 230 nM | 2.453 | CC(=O)N1CCC[C@]12CC=CCCCC1(CCCC=CCCCCCC[C@@](C)(C(=O)N[C@@H](Cc3ccccc3)C(=O)N[C@@H](Cc3csc4ccccc34)C(=O)N[C@@H](CCC(N)=O)C(N)=O)NC(=O)[C@H]([C@@H](C)O)NC(=O)[C@H](Cc3ccccc3)NC(=O)[C@H](C)NC(=O)[C@H](C)NC(=O)[C@H](CCC(=O)O)NC(=O)[C@H](CC(=O)O)NC1=O)NC(=O)[C@H](CC(C)C)NC(=O)[C@H](CC(=O)O)NC2=O (stereo partly drawn) [I-622, Ac-PL3-Asp-Leu-B5-Asp-Glu-Ala-Ala-Phe-Thr-S8-Phe-BztA-Gln-NH2] |
| 103 nM | 44 µM (≈ 81.7 µg/mL) |  | 103 nM | 2.494 | CC(=O)N1CCC[C@]12CC=CCCCC1(CCCC=CCCCCCC[C@@](C)(C(=O)N[C@@H](Cc3ccccc3)C(=O)N[C@@H](Cc3csc4ccccc34)C(=O)N[C@@H](CCC(N)=O)C(N)=O)NC(=O)[C@H]([C@@H](C)O)NC(=O)[C@H](Cc3ccccc3)NC(=O)[C@H](C)NC(=O)[C@H](C)NC(=O)[C@H](CCC(=O)O)NC(=O)[C@H](CC(=O)O)NC1=O)NC(=O)[C@H](CC(C)C)NC(=O)[C@H](CC(=O)O)NC2=O (stereo partly drawn) [I-623, Ac-PL3-Asp-Leu-B5-Asp-Glu-Ala-Ala-Phe-Thr-S8-Phe-BztA-Gln-NH2] |
| 273 nM | 27 µM (≈ 47 µg/mL) |  | 273 nM | 2.598 | CC(=O)N1CCC[C@]12CC=CCCCC1(CCCC=CCCCCCC[C@@](C)(C(=O)N[C@@H](Cc3ccccc3)C(=O)N[C@@H](Cc3csc4ccccc34)C(N)=O)NC(=O)[C@H](CC(N)=O)NC(=O)[C@H](Cc3ccccc3)NC(=O)[C@H](C)NC(=O)[C@H](C)NC(=O)[C@H](CCC(=O)O)NC(=O)[C@H](CC(=O)O)NC1=O)NC(=O)[C@H](CC(C)C)NC(=O)[C@H](CC(=O)O)NC2=O (stereo partly drawn) [I-624, Ac-PL3-Asp-Leu-B5-Asp-Glu-Ala-Ala-Phe-Asn-S8-Phe-BztA-NH2] |
| 119 nM | 47 µM (≈ 81.8 µg/mL) |  | 119 nM | 2.681 | CC(=O)N1CCC[C@]12CC=CCCCC1(CCCC=CCCCCCC[C@@](C)(C(=O)N[C@@H](Cc3ccccc3)C(=O)N[C@@H](Cc3csc4ccccc34)C(N)=O)NC(=O)[C@H](CC(N)=O)NC(=O)[C@H](Cc3ccccc3)NC(=O)[C@H](C)NC(=O)[C@H](C)NC(=O)[C@H](CCC(=O)O)NC(=O)[C@H](CC(=O)O)NC1=O)NC(=O)[C@H](CC(C)C)NC(=O)[C@H](CC(=O)O)NC2=O (stereo partly drawn) [I-625, Ac-PL3-Asp-Leu-B5-Asp-Glu-Ala-Ala-Phe-Asn-S8-Phe-BztA-NH2] |
| 338 nM | 47 µM (≈ 83.7 µg/mL) |  | 338 nM | 3.002 | CC(=O)N1CCC[C@]12CC=CCCCC1(CCCC=CCCCCCC[C@@](C)(C(=O)N[C@@H](Cc3ccccc3)C(=O)N[C@@H](Cc3csc4ccccc34)C(N)=O)NC(=O)[C@H](CC(N)=O)NC(=O)[C@H](Cc3ccccc3)NC(=O)[C@H](C)NC(=O)[C@H](C)NC(=O)[C@H](CCC(=O)O)NC(=O)[C@H](CC(=O)O)NC1=O)NC(=O)[C@H](CC1CCCCC1)NC(=O)[C@H](CC(=O)O)NC2=O (stereo partly drawn) [I-627, Ac-PL3-Asp-Cha-B5-Asp-Glu-Ala-Ala-Phe-Asn-S8-Phe-BztA-NH2] |
